The source of these data is US8658794B2, “8-methyl-1-phenyl-imidazol[1,5-a]pyrazine compounds as Lck inhibitors and uses thereof” (Merck Sharp & Dohme B.V., priority 2010, dated 2014).

As usually defined, the IC50 is the midpoint of a concentration-inhibition curve.

In this test the target is T1, N-terminal His6-tagged recombinant full-length human Lck (Homo sapiens, UniProt P06239).
T1 construct: N-terminal His6-tagged recombinant full-length human Lck; His6 (N); purchased Millipore
T1 sequence (P06239 whole entry): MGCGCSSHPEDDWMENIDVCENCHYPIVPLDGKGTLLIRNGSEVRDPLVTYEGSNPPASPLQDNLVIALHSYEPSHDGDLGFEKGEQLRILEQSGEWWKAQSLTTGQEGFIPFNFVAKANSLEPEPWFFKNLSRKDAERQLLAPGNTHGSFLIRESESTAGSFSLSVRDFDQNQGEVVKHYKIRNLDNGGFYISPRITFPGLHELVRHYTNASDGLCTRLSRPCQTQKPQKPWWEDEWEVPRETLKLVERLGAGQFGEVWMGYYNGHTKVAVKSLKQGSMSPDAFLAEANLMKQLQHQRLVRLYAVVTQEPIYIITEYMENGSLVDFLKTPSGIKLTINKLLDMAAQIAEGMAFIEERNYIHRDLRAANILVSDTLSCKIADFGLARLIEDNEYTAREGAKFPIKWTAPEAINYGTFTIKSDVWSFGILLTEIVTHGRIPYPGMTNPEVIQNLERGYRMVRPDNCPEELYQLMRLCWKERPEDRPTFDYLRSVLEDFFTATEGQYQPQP
As to the kind of experiment: Lck IMAP assay. It counts as biochemical. The settings on record: ATP 6 μM (KM,ATP), enzyme pre-incubated with compounds for 60 minutes, values given as bins. The method, boiled down: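 Full-length His6-Lck at 0.1 U/ml was preincubated 60 min with compound, then run 120 min at room temperature with 100 nM fluorescein-p34cdc2 peptide and 6 μM ATP (KM) in pH 7.2 Tris buffer. Read-out by IMAP fluorescence polarization; pIC50 from ten-point √10 dilutions starting at 10^-6 M.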
With `COc1cc(-c2nc([C@H]3CC[C@@H](N4CCN(C)CC4)CC3)n3ccnc(C)c23)ccc1NC(=O)c1cc2c(OC)cccc2n1C` [Example 8, 4-Methoxy-N-(2-methoxy-4-(8-methyl-3-((cis)-4-(4-methylpiperazin-1-yl)cyclohexyl)imidazo[1,5-a]pyrazin-1-yl)phenyl)-1-methyl-1H-indole-2-carboxamide], the IC50 is at most 0.01 µM.

`Cc1nccn2c1c(-c1ccc(NC(=O)c3cc4ccccc4n3C)cc1)nc2[C@H]1CC[C@H](N2CCN(C)CC2)CC1` [Example 61, 1-Methyl-N-(4-(8-methyl-3-((trans)-4-(4-methylpiperazin-1-yl)cyclohexyl)imidazo[1,5-a]pyrazin-1-yl)phenyl)-1H-indole-2-carboxamide]: the IC50 was at most 0.01 µM. The value for `COc1cc(-c2nc(N3CCC(N4CCOCC4)CC3)n3ccnc(C)c23)ccc1NC(=O)OC(C)C` [Example 25, Isopropyl 2-methoxy-4-(8-methyl-3-(4-morpholinopiperidin-1-yl)imidazo[1,5-a]pyrazin-1-yl)phenylcarbamate] was 0.01 to 0.1 µM. As for `COc1cc(-c2nc([C@H]3CC[C@H](O)CC3)n3ccnc(C)c23)ccc1NC(=O)c1cc2c(OC)cccc2n1C` [Example 6, N-(4-(3-((trans)-4-hydroxycyclohexyl)-8-methylimidazo[1,5-a]pyrazin-1-yl)-2-methoxyphenyl)-4-methoxy-1-methyl-1H-indole-2-carboxamide], the IC50 is at most 0.01 µM.
